Values of other authors as cited in patent US12161629B2, “Methods and compositions for treatment of glaucoma and related conditions” (Opus Genetics, Inc., priority 2018, dated 2024).
Where a name gives a salt, the structure may show the parent alone. Read-outs that look alike come from different tables or passages of the source.

Columns and labels:
[1] = tested on: eyes of patients
[2] = tested on: alpha-1 adrenergic receptor

| SMILES | effect on intraocular pressure ([1]; in patients, Hara et al., Cardiovascular Drug Reviews (2005)) | inhibitory activity, alpha-1 versus alpha-2 adrenergic receptor [2] | effect on intraocular pressure ([1]; in normotensive eyes or in eyes with elevated intraocular pressure) |
| --- | --- | --- | --- |
| CCCC(=O)N1CCCN(c2nc(N)c3cc(OC)c(OC)cc3n2)CC1 [bunazosin] | decreased intraocular pressure in patients | greater inhibitory activity towards (i) the alpha-1 adrenergic receptor compared to the (ii) alpha-2 adrenergic receptor | – |
| Cc1ccccc1N1CCN(CCc2nnc3n2CCCC3)CC1 [dapiprazole hydrochloride] | – | – | not significantly alter intraocular pressure |
